Data reported in patent US9815852B2, “Macrocyclic compounds and methods of treatment” (University of Florida Research Foundation, Inc., priority 2014, dated 2017).
pIC50: −log10 of the molar value. Read-outs that look alike come from different tables or passages of the source.

What was measured:
Type in all cases: biochemical
HDAC8 = target: T1, HDAC8 (Homo sapiens, UniProt Q9BY41); assay: HDAC enzyme inhibitory assay (fluorescence), HDAC8; details: for pIC50: no inhibition up to highest concentration 1 μM
T1 sequence (Q9BY41 1-377): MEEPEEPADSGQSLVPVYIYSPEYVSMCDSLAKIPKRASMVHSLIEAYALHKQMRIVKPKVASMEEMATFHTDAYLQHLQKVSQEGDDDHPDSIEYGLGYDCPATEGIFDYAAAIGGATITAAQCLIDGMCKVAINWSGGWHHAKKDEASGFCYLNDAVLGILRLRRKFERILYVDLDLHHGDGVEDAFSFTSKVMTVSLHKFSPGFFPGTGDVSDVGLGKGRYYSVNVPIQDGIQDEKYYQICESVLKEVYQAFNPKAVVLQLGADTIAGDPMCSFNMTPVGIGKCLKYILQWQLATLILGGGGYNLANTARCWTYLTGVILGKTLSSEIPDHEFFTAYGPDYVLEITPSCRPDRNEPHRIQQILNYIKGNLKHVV
Experimental: (§1) Enzyme inhibitory assays were carried out essentially as follows. In brief, compounds were incubated with the appropriate HDAC enzyme, the appropriate HDAC substrate, bovine serum albumin, and HDAC buffer. Duplicate reactions were carried out at 37° C. for 30 min. The reactions were quenched at the end of the incubation period with the addition of HDAC developer. Reactions were further incubated for 15 min at room temperature prior to fluorescence measurement (ex 360 nm/em 460 nm). The % inhibitory activity was calculated according to the equation (F−Fb)/(Ft−Fb), where F—fluorescent intensity of compound treated wells, Fb—fluorescent intensity of blank wells, Ft—fluorescent intensity of solvent control wells. IC50 values were calculated using GraphPad Prism.

HDAC3 = HDAC3 (Homo sapiens, UniProt O15379); assay: HDAC enzyme inhibitory assay (fluorescence), HDAC3; details: for IC50 (HDAC3)/IC50 (HDAC1): selectivity ratio, table
Sequence of HDAC3 (O15379 whole entry, species assumed): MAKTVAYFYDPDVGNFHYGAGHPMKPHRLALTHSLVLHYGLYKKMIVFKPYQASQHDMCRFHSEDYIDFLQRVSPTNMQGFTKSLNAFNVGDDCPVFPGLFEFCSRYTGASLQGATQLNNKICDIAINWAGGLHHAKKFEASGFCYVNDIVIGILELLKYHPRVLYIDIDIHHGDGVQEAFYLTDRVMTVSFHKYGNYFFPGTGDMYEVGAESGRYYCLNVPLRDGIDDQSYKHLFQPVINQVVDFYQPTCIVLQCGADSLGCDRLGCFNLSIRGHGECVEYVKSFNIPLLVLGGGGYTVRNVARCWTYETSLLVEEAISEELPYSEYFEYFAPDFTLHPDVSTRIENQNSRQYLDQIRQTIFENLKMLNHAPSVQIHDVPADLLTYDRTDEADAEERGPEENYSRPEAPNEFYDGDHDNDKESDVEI
Sequence of HDAC3 (Q9Y618 395-489 partner limits assumed, species assumed): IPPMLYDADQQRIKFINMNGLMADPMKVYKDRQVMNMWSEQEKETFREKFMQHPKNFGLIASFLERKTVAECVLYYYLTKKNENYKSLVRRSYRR
Experimental: as §1

HDAC1 = HDAC1 (Homo sapiens, UniProt Q13547); assay: HDAC enzyme inhibitory assay (fluorescence), HDAC1
Sequence of HDAC1 (Q13547 whole entry, species assumed): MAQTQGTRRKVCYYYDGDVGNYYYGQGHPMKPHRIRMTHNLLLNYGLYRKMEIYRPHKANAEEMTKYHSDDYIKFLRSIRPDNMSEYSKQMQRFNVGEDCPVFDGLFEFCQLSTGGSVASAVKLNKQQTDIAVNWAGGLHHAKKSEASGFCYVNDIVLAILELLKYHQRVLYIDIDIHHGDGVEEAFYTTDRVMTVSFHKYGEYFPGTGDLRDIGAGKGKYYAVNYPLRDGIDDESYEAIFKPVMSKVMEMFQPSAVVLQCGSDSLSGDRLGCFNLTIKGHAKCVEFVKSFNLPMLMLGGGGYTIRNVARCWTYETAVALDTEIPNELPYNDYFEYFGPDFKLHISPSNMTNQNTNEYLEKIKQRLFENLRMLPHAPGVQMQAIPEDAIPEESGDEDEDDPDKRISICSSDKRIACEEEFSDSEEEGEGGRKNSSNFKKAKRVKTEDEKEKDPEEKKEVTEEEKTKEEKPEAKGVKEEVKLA
Experimental: as §1

HDAC2 = HDAC2 (Homo sapiens, UniProt Q92769); assay: HDAC enzyme inhibitory assay (fluorescence), HDAC2; details: for IC50 (HDAC2)/IC50 (HDAC1): selectivity ratio, table
Sequence of HDAC2 (Q92769 whole entry, species assumed): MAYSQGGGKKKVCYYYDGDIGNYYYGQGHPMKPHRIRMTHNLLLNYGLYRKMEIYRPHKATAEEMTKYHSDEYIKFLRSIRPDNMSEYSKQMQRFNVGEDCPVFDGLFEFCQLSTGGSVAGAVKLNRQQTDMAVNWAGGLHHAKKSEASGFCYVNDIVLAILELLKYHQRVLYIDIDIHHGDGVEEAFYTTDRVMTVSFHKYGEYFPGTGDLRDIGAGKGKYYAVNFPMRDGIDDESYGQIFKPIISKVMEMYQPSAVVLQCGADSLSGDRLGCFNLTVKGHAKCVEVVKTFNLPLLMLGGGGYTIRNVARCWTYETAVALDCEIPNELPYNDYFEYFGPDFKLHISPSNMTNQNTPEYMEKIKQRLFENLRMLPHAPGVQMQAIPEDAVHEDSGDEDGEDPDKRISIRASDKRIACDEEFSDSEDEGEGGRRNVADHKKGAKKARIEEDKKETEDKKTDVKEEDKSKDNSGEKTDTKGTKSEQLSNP
Experimental: as §1

class I HDACs = assay: HDAC enzyme inhibitory assay, class I HDACs overall; details: class I HDACs tested (HDAC1, 2, 3, 8)
Experimental: as §1, with “Reactions were further incubated for 15 min at room temperature prior to fluorescence measurement (ex 360 nm/em 460 nm).” left out

[1] = read-out: IC50 HDAC8, 'No Inhibition up to 1 μM'

Compound	pIC50 (HDAC8)	IC50 (HDAC3)	IC50 (HDAC3)/IC50 (HDAC1) (HDAC3)	IC50 (HDAC1)	IC50 (HDAC2)	IC50 (HDAC2)/IC50 (HDAC1) (HDAC2)	pIC50 (HDAC8; [1])	also measured
C[C@@]12CSC(=N1)c1csc(n1)CNC(=O)C[C@@H](/C=C/CCS)OC(=O)[C@H](Cc1ccc(O)cc1)NC2=O [Compound 4]	< 6.00							
CC12CSC(=N1)c1csc(n1)CNC(=O)CC(C=CCCS)OC(=O)C(Cc1c[nH]cn1)NC2=O (centres unmarked) [Compound 5]		1.1 nM	5.5	0.2 nM	1.4 nM	7.0	< 6.00	selectivity towards HDAC1 over HDAC3 (HDAC3): 5.5 fold; selectivity towards HDAC1 over HDAC2 (HDAC2): 7 fold
CC12CSC(=N1)c1csc(n1)CNC(=O)CC(C=CCCS)OC(=O)C(CC(=O)O)NC2=O (centres unmarked) [Compound 6]				39 nM			< 6.00	HDAC inhibition, potency in words (class I HDACs): significant reduction in activity
C[C@@]12CSC(=N1)c1csc(n1)CNC(=O)C[C@@H](/C=C/CCS)OC(=O)[C@H](CCCN)NC2=O [Compound 8]	< 6.00							
CC(C)(C)OC(=O)NCCCC1NC(=O)C2(C)CSC(=N2)c2csc(n2)CNC(=O)CC(C=CCCS)OC1=O (centres unmarked) [Compound 10]		1.8 nM	1.9	0.96 nM	1.4 nM	1.5		HDAC inhibition, potency in words (class I HDACs): more potent than 9; IC50 (HDAC8; read-out: IC50 (nM) HDAC8): 790 nM
CC12CSC(=N1)c1csc(n1)CNC(=O)CC(C=CCCS)OC(=O)C(Cc1ccccc1)NC2=O (centres unmarked) [Compound 3]				0.29 nM			< 6.00	
C[C@@]12CSC(=N1)c1csc(n1)CNC(=O)C[C@@H](/C=C/CCS)OC(=O)[C@H](CCN)NC2=O [Compound 7]	< 6.00							
CC(C)(C)OC(=O)NCCC1NC(=O)C2(C)CSC(=N2)c2csc(n2)CNC(=O)CC(C=CCCS)OC1=O (centres unmarked) [Compound 9]		4.2 nM	1.8	2.3 nM	3.1 nM	1.4	< 6.00	
